Laboratory results from patent US11597706B2, “Compounds and compositions for treating conditions associated with NLRP activity” (Novartis AG, priority 2016, dated 2023).

target: T1, hNLRP3 (THP-1, IL-1β) (Homo sapiens, UniProt Q96P20); experiment: IL-1β production in PMA-differentiated THP-1 cells stimulated with gramicidin; assay type: cell-based; settings: Table 1, gramicidin 5 μM, IL-1β readout
T1 construct: THP-1 cells were purchased from the American Type Culture Collection; host or cells: THP-1 cells, PMA-differentiated, stimulated with gramicidin
T1 sequence (Q96P20 whole entry): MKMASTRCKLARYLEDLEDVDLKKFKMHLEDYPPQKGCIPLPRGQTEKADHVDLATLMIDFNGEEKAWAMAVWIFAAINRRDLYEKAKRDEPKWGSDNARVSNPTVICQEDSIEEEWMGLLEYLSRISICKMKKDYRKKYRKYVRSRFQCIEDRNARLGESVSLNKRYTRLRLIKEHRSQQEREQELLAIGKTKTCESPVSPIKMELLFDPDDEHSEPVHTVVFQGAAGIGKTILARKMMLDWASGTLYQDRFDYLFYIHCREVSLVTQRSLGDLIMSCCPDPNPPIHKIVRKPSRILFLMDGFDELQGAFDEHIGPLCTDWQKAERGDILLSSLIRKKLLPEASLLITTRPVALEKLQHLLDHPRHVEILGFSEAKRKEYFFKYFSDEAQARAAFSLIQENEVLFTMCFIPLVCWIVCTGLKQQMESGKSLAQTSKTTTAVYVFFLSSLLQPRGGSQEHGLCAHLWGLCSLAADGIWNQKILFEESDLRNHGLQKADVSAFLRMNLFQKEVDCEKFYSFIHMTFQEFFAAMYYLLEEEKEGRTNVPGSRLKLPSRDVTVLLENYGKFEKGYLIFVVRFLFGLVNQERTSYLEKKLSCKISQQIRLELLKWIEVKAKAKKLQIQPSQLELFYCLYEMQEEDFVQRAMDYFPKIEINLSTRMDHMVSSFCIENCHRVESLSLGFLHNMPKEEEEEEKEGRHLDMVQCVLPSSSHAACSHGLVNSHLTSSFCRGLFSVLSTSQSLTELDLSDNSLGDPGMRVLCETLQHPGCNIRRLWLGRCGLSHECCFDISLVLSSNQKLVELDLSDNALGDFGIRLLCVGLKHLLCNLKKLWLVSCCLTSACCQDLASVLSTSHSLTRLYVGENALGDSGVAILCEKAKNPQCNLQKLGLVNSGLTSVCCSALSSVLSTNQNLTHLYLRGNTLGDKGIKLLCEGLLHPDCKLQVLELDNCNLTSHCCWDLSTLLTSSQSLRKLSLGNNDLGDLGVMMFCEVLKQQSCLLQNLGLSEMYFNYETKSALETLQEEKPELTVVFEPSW
Description: IL-1β Production in PMA-Differentiated THP-1 Cells Stimulated With Gramicidin.
Cell culture-THP-1 cells were purchased from the American Type Culture Collection and sub-cultured according to instructions from the supplier. Prior to experiments, cells were cultured in RPMI 1640 containing 10% heat inactivated FBS, penicillin (100 units/ml) and streptomycin (100 μg/ml), and maintained in log phase prior to experimental setup. Prior to the experiment THP-1 were treated with PMA (Phorbol 12-myristate 13-acetate) (10 μg/ml) for 24 hours. The day of the experiment the media was removed and attaching cells were treated with trypsin for 2 minutes, cells were then collected, washed with PBS (phosphate buffer saline), spin down, resuspended in 2% heat inactivated FBS with RPMI at a concentration of 1×10^6 cells/ml, and 100 μl was plated in a 96 well plate. Cells were incubated with compounds for 1 hours and then stimulated with Gramicidin (5 μM) (Enzo) for 2 hours. Cell free supernatant was collected and the production of IL-1β was evaluated by ELISA. Compounds were dissolved in dimethyl sulfoxide (DMSO) and added to the culture medium to achieve desired concentration (e.g. 100, 30, 10, 3, 1, 0.3 or 0.1 μM). A vehicle only control was run concurrently with each experiment. Final DMSO concentration was 1%.
THP-1 cells were purchased from the American Type Culture Collection and sub-cultured according to instructions from the supplier. Prior to experiments, cells were cultured in complete RPMI 1640 (containing 10% heat inactivated FBS, penicillin (100 units/ml) and streptomycin (100 μg/ml)), and maintained in log phase prior to experimental setup. Prior to the experiment THP-1 were treated with PMA (Phorbol 12-myristate 13-acetate) (20 ng/ml) for 16-18 hours. On the day of the experiment the media was removed and adherent cells were detached with trypsin for 5 minutes. Cells were then harvested, washed with complete RPMI 1640, spun down, resuspended in RPMI 1640 (containing 2% heat inactivated FBS, penicillin (100 units/ml) and streptomycin (100 μg/ml). The cells were plated in a 384-well plate at a density of 50,000 cells/well (final assay volume 50 μl). Compounds were dissolved in dimethyl sulfoxide (DMSO) and added to the culture medium to achieve desired concentration (e.g. 100, 33, 11, 3.7, 1.2, 0.41, 0.14, 0.046, 0.015, 0.0051, 0.0017 μM). Cells were incubated with compounds for 1 hour and then stimulated with gramicidin (5 μM) (Enzo) for 2 hours. Cell free supernatant was collected and the production of IL-1β was evaluated by HTRF (cisbio). A vehicle only control was run concurrently with each experiment. Final DMSO concentration was 0.38%.

IC50	Compound
< 1000 nM	CC(C)(O)c1cc(C#N)cc(S(=O)(=O)NC(=O)Nc2c3c(c(F)c4c2CCC4)CCC3)c1 [Compound 112, 3-cyano-N-(8-fluoro-1,2,3,5,6,7-hexahydros-indacen-4-ylcarbamoyl)-5-(2-hydroxypropan-2-yl)benzenesulfonamide]
< 1000 nM	CC(C)(O)c1cccc(S(=O)(=O)NC(=O)Nc2c3c(c(F)c4c2CCC4)CCC3)c1 [Compound 111, N-(8-fluoro-1,2,3,5,6,7-hexahydros-indacen-4-ylcarbamoyl)-3-(2-hydroxypropan-2-yl)benzenesulfonamide]
< 1000 nM	CC(C)c1cc(C#N)cc(C(C)C)c1NC(=O)NS(=O)(=O)c1cc(F)cc(C(C)(C)O)c1 [Compound 126]
< 1000 nM	CC(C)c1cc(C#N)cc(C(C)C)c1NC(=O)NS(=O)(=O)c1cc(C#N)cc(C(C)(C)O)c1 [Compound 116, 3-cyano-N-(4-cyano-2,6-diisopropylphenylcarbamoyl)-5-(2-hydroxypropan-2-yl)benzenesulfonamide]
< 1000 nM	CC(C)(O)c1cc(F)cc(S(=O)(=O)NC(=O)Nc2c3c(c(F)c4c2CCC4)CCC3)c1 [Compound 114, 3-fluoro-N-(8-fluoro-1,2,3,5,6,7-hexahydros-indacen-4-ylcarbamoyl)-5-(2-hydroxypropan-2-yl)benzenesulfonamide]
< 1000 nM	CC(C)(O)c1cc(C#N)cc(S(=O)(=O)NC(=O)Nc2c3c(c(Cl)c4c2CCC4)CCC3)c1 [Compound 110, N-(8-chloro-1,2,3,5,6,7-hexahydros-indacen-4-ylcarbamoyl)-3-cyano-5-(2-hydroxypropan-2-yl)benzenesulfonamide]
< 1000 nM	CC(C)(O)c1cc(Cl)cc(S(=O)(=O)NC(=O)Nc2c3c(c(F)c4c2CCC4)CCC3)c1 [Compound 113, 3-chloro-N-(8-fluoro-1,2,3,5,6,7-hexahydros-indacen-4-ylcarbamoyl)-5-(2-hydroxypropan-2-yl)benzenesulfonamide]
< 1000 nM	CC(C)c1cccc(C(C)C)c1NC(=O)NS(=O)(=O)c1cc(Cl)cc(C(C)(C)O)c1 [Compound 120, 3-chloro-N-(2,6-diisopropylphenylcarbamoyl)-5-(2-hydroxypropan-2-yl)benzenesulfonamide]

same assay, conditions: Table 2, gramicidin 5 μM, IL-1β readout

Compound	IC50
CC(C)c1cc(Cl)cc(C(C)C)c1NC(=O)NS(=O)(=O)c1cc(Cl)cc(C(C)(C)O)c1 [Compound 154, 3-chloro-N-(4-chloro-2,6-diisopropylphenylcarbamoyl)-5-(2-hydroxypropan-2-yl)benzenesulfonamide]	1000 to 5000 nM
CC(C)(O)c1cc(-c2ccncc2)cc(S(=O)(=O)NC(=O)Nc2c3c(cc4c2CCC4)CCC3)c1 [Compound 149, N-(1,2,3,5,6,7-hexahydro-sindacen-4-ylcarbamoyl)-3-(2-hydroxypropan-2-yl)-5-(pyridin-4-yl)benzenesulfonamide]	1000 to 5000 nM
CC(C)c1cc(Cl)cc(C(C)C)c1NC(=O)NS(=O)(=O)c1cc(F)cc(C(C)(C)O)c1 [Compound 150, N-(4-chloro-2,6-diisopropylphenylcarbamoyl)-3-fluoro-5-(2-hydroxypropan-2-yl)benzenesulfonamide]	1000 to 5000 nM
CC(C)c1ccc(F)c(C(C)C)c1NC(=O)NS(=O)(=O)c1cc(N2CCOCC2)cc(C(C)(C)O)c1 [Compound 157, N-(3-fluoro-2,6-diisopropylphenylcarbamoyl)-3-(2-hydroxypropan-2-yl)-5-morpholinobenzenesulfonamide]	1000 to 5000 nM
CC(C)c1ccc(F)c(C(C)C)c1NC(=O)NS(=O)(=O)c1cc(C(C)(C)O)cc(C(C)(C)O)c1 [Compound 155, N-(3-fluoro-2,6-diisopropylphenylcarbamoyl)-3,5-bis(2-hydroxypropan-2-yl)benzenesulfonamide]	1000 to 5000 nM
CC(C)(O)c1cc(-c2ccccc2)cc(S(=O)(=O)NC(=O)Nc2c3c(cc4c2CCC4)CCC3)c1 [Compound 151, N-(1,2,3,5,6,7-hexahydro-sindacen-4-ylcarbamoyl)-5-(2-hydroxypropan-2-yl)biphenyl-3-sulfonamide]	1000 to 5000 nM
CC(C)c1ccc(F)c(C(C)C)c1NC(=O)NS(=O)(=O)c1cc(-c2ccncc2)cc(C(C)(C)O)c1 [Compound 159, N-(3-fluoro-2,6-diisopropylphenylcarbamoyl)-3-(2-hydroxypropan-2-yl)-5-(pyridin-4-yl)benzenesulfonamide]	5000 to 15000 nM
CC(C)c1cc(C#N)cc(C(C)C)c1NC(=O)NS(=O)(=O)c1ccc(C(C)(C)O)cc1 [Compound 168, N-(4-cyano-2,6-diisopropylphenylcarbamoyl)-4-(2-hydroxypropan-2-yl)benzenesulfonamide]	1000 to 5000 nM

Continued, values first:

IC50	Compound
< 1000 nM	CC(C)c1cc(C#N)cc(C(C)C)c1NC(=O)NS(=O)(=O)c1cc(Cl)cc(C(C)(C)O)c1 [Compound 138, 3-chloro-N-(4-cyano-2,6-diisopropylphenylcarbamoyl)-5-(2-hydroxypropan-2-yl)benzenesulfonamide]
< 1000 nM	CC(C)(O)c1ccc(S(=O)(=O)NC(=O)Nc2c3c(cc4c2CCC4)CCC3)cn1 [Compound 166, N-(1,2,3,5,6,7-hexahydros-indacen-4-ylcarbamoyl)-6-(2-hydroxypropan-2-yl)pyridine-3-sulfonamide]
1000 to 5000 nM	COC(=O)c1ccc(F)c(S(=O)(=O)NC(=O)Nc2c(C(C)C)cc(Cl)cc2C(C)C)c1 [Compound 171, methyl 3-(N-(4-chloro-2,6-diisopropylphenylcarbamoyl)sulfamoyl)-4-fluorobenzoate]
1000 to 5000 nM	CC(C)c1cccc(C(C)C)c1NC(=O)NS(=O)(=O)c1ccc(C(C)(C)O)cc1 [Compound 169, N-(2,6-diisopropylphenylcarbamoyl)-4-(2-hydroxypropan-2-yl)benzenesulfonamide]
1000 to 5000 nM	CC(C)c1ccc(F)c(C(C)C)c1NC(=O)NS(=O)(=O)c1cc(-c2ccccc2)cc(C(C)(C)O)c1 [Compound 153, N-(3-fluoro-2,6-diisopropylphenylcarbamoyl)-5-(2-hydroxypropan-2-yl)biphenyl-3-sulfonamide]
< 1000 nM	CC(C)(O)c1ccc(S(=O)(=O)NC(=O)Nc2c3c(cc4c2CCC4)CCC3)cc1CO [Compound 163, N-(1,2,3,5,6,7-hexahydro-sindacen-4-ylcarbamoyl)-3-(hydroxymethyl)-4-(2-hydroxypropan-2-yl)benzenesulfonamide]
< 1000 nM	CC(C)(O)c1cc(N2CCOCC2)cc(S(=O)(=O)NC(=O)Nc2c3c(cc4c2CCC4)CCC3)c1 [Compound 146]
< 1000 nM	CC(C)c1ccc(F)c(C(C)C)c1NC(=O)NS(=O)(=O)c1cccc(C(C)(C)O)c1 [Compound 141, N-(3-fluoro-2,6-diisopropylphenylcarbamoyl)-3-(2-hydroxypropan-2-yl)benzenesulfonamide]
< 1000 nM	CC(C)(O)c1cc(C#N)cc(S(=O)(=O)NC(=O)Nc2c3c(cc4c2CCC4)CCC3)c1 [Compound 142]
< 1000 nM	CC(C)c1cc(Cl)cc(C(C)C)c1NC(=O)NS(=O)(=O)c1ccc(C(C)(C)O)cc1 [Compound 162, N-(4-chloro-2,6-diisopropylphenylcarbamoyl)-4-(2-hydroxypropan-2-yl)benzenesulfonamide]
< 1000 nM	CC(C)(O)c1ccc(S(=O)(=O)NC(=O)Nc2c3c(c(F)c4c2CCC4)CCC3)cc1 [Compound 160, N-(8-fluoro-1,2,3,5,6,7-hexahydro-sindacen-4-ylcarbamoyl)-4-(2-hydroxypropan-2-yl)benzenesulfonamide]
< 1000 nM	CC(C)c1ccc(F)c(C(C)C)c1NC(=O)NS(=O)(=O)c1cc(F)cc(C(C)(C)O)c1 [Compound 144, 3-fluoro-N-(3-fluoro-2,6-diisopropylphenylcarbamoyl)-5-(2-hydroxypropan-2-yl)benzenesulfonamide]
< 1000 nM	CC(C)c1ccc(F)c(C(C)C)c1NC(=O)NS(=O)(=O)c1cc(Cl)cc(C(C)(C)O)c1 [Compound 137, 3-chloro-N-(3-fluoro-2,6-diisopropylphenylcarbamoyl)-5-(2-hydroxypropan-2-yl)benzenesulfonamide]
< 1000 nM	CC(C)c1cc(C#N)cc(C(C)C)c1NC(=O)NS(=O)(=O)c1cccc(C(C)(C)O)c1 [Compound 147, N-(4-cyano-2,6-diisopropylphenylcarbamoyl)-3-(2-hydroxypropan-2-yl)benzenesulfonamide]
